Measured values reported in US10221139B2, “Inhibitors of histone demethylases” (Gilead Sciences, Inc., priority 2012, dated 2019).

Key:
GASC1 (KDM4C, JMJD2C) = target: T1, GASC1 (KDM4C, JMJD2C) (Homo sapiens, UniProt Q9H3R0); experiment: Histone lysine demethylase AlphaLISA assay, GASC1; format: biochemical; details: substrate BK9M3
T1 construct: 1-349; host or cells: E. coli
T1 sequence (Q9H3R0 1-349): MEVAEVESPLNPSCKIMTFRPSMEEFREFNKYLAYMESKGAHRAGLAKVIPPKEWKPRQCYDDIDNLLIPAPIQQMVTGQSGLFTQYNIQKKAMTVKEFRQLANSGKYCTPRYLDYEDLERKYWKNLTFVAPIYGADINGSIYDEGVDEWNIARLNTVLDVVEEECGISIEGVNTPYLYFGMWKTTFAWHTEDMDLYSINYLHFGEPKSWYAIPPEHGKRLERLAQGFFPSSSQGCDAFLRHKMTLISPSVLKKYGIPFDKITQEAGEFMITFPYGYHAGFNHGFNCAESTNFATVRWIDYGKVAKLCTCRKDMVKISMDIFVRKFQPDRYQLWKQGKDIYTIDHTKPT
In short: (§1)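 Enzyme was preincubated 10 min, then 10 min with compounds in 3% DMSO buffer before substrate addition; reaction ran at room temperature. AlphaLISA acceptor beads (60 min, dark) and streptavidin donor beads were added before reading for IC50.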

FBXL10 (KDM2B) = target: T2, FBXL10 (KDM2B) (Homo sapiens, UniProt Q8NHM5); experiment: Histone lysine demethylase AlphaLISA assay, FBXL10; format: biochemical; details: substrate BH3K36M2
T2 construct: 1-650; purchased BPS, Bioscience, US; host or cells: Bac (baculovirus)
T2 sequence (Q8NHM5 1-650): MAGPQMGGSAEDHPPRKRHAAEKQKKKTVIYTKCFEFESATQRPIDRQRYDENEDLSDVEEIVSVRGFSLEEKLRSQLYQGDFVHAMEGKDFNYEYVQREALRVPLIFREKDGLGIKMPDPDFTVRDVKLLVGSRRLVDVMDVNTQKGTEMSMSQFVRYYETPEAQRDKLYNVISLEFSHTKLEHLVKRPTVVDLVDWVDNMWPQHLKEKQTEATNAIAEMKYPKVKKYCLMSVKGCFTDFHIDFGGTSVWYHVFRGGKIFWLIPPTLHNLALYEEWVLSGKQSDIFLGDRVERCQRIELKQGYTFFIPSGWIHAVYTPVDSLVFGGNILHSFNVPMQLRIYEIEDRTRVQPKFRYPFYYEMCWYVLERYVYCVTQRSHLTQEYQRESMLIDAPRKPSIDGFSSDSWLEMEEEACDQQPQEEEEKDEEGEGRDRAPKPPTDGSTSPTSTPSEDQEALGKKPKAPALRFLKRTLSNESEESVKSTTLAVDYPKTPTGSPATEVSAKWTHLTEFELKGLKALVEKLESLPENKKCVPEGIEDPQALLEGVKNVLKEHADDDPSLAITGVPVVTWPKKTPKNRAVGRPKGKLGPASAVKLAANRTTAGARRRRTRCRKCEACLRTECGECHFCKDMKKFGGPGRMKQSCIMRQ
Experimental: Example 2: Histone Lysine Demethylase AlphaLISA Assays for IC50 Value Determination
Assays are performed analogously to the protocol described by Perkin Elmer (Roy et al. Perkin Elmer Technical Note: AlphaLISA #12, April 2011).
Enzymes are dissolved in enzyme buffer and incubated for 10 min before 5 μL is added to 5 μL 3% DMSO solutions of compounds in enzyme buffer. Incubated for another 10 minutes, before 5 μL substrate solution is added and the reaction mixture is incubated at room temperature for the given period. 10 μL acceptor beads, suspended at given dilutions in Epigenetic Buffer (Perkin Elmer AL008) from stock, are added and the suspension is incubated 60 minutes in the dark at room temperature, before 10 μL suspension (at the given dilutions in Epigenetic Buffer) of streptavidin donor beads (Perkin Elmer 6760002) in Epigenetic Buffer is added. After incubation at room temperature in the dark the plates are read. Reaction conditions are seen in Table 2b.

PLU1 (KDM5B) [1] = target: T3, PLU1 (KDM5B) (Homo sapiens, UniProt Q9UGL1); experiment: Histone lysine demethylase AlphaLISA assay, PLU1; format: biochemical; details: substrate H3K4M3B
T3 construct: 1-809; host or cells: E. coli
T3 sequence (Q9UGL1 1-809): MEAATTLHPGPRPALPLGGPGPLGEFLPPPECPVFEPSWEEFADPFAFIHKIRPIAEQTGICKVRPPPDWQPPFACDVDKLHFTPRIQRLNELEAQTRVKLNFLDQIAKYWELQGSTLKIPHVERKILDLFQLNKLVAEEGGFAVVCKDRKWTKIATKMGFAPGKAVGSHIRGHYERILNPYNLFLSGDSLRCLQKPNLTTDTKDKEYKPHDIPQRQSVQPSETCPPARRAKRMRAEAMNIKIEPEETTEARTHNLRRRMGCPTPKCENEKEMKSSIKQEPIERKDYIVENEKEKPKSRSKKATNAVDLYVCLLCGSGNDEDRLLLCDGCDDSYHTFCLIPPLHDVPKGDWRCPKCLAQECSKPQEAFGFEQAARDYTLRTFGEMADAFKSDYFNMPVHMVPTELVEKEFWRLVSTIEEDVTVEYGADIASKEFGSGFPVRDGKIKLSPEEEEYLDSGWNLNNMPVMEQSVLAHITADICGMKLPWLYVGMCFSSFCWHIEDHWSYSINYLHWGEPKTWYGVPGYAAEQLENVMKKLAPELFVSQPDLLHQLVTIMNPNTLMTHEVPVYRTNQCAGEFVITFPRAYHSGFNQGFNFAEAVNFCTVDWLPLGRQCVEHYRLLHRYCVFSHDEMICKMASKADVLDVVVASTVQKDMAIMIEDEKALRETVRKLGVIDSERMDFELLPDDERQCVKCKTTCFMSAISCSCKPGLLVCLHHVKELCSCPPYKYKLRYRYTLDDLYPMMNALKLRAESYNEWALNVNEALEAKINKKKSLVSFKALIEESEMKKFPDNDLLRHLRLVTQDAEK
In short: as §1

GASC1 (KDM4C) = target: T4, GASC1 (KDM4C) (Homo sapiens, UniProt Q9H3R0); experiment: Immunofluorescence assay in U2OS cells transfected with pCMVHA JMJD2C (H3K9me3 mark); format: cell-based; details: 20 hours
T4 construct: Full length; host or cells: U2OS
T4 sequence (Q9H3R0 1-1056): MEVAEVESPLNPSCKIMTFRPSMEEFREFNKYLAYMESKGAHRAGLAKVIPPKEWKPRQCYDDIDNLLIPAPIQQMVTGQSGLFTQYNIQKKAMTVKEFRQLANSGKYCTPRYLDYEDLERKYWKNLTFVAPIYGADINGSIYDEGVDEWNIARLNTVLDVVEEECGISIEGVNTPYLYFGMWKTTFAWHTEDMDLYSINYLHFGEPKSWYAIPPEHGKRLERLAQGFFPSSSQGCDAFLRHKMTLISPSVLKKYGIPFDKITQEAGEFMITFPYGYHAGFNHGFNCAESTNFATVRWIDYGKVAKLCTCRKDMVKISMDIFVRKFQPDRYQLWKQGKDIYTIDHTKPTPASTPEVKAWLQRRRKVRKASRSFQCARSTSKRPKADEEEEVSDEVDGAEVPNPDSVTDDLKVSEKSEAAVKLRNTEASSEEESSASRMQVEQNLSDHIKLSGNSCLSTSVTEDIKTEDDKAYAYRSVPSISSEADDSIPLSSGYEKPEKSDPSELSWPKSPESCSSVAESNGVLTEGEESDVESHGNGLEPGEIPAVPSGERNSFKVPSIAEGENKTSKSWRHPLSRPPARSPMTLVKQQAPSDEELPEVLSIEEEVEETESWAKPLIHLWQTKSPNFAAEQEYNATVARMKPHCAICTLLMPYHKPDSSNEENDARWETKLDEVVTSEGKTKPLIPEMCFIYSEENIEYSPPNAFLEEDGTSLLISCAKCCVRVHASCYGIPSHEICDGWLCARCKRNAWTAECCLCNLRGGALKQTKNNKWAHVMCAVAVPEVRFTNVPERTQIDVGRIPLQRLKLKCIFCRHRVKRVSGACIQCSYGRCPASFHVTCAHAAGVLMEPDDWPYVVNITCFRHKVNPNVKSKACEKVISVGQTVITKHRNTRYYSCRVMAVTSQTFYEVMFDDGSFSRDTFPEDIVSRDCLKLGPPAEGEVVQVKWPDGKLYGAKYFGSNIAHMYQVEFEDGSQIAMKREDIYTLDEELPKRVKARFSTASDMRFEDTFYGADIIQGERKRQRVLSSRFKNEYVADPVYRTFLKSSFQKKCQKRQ
Experimental: (§2) U2OS cells were seeded 24 hours before transfection. Transfection was performed with Fugene HD transfection reagent as recommended by the manufacturer. 6 hours after transfection, the cells were harvested and seeded into multi well plates into media containing compound. The media used was DMEM containing 5% FBS and pen/strep. 20 hours after incubation of cells with compounds, the cells were washed once in PBS, harvested by fixation with formaldehyde 4% aqueous solution, and washed 2 times in PBS. Subsequently, the cells were permeabilized in PBS with 0.2% Triton X-100 for 10 min at room temperature. Blocking was performed in PBS with 0.2% Triton X-100 and 5% FBS for 45 min at room temperature. The cells were incubated with primary antibodies diluted 1 μg/ml in blocking solution over night at 4° C. The primary antibodies used in the assays were HA.11 (Covance, MMS-101P) and the antibody detecting the mark specified in the Table 6 below. After incubation with primary antibodies, the cells were washed 3 times with PBS, incubated with secondary antibodies diluted 1:1000 (Alexa fluor 594 goat anti rabbit IgG, Invitrogen, A11012; Alexa flour 488 donkey anti mouse IgG, Invitrogen, A21202) and Hoechst, 20 μg/ml (Sigma, 33342) in blocking solution, and washed again 3 times with PBS. Finally, PBS was added and high throughput imaging and analysis were performed by an IN Cell Analyzer 1000 (GE Healthcare). The robot software analyzed individual cells and divided these into HA^+ (transfected cells) and HA^− (non-transfected cells). The IC50 values in Table 7 below were based on an average measure of the staining of the mark specified in the Table 6 below in the transfected cells.

PLU1 (KDM5B) [2] = target: T5, PLU1 (KDM5B) (Homo sapiens, UniProt Q9UGL1); experiment: Immunofluorescence assay in U2OS cells transfected with pCMVHA PLU1 (H3K4me2 mark); format: cell-based; details: 20 hours
T5 construct: (1-752); host or cells: U2OS
T5 sequence (Q9UGL1 1-752): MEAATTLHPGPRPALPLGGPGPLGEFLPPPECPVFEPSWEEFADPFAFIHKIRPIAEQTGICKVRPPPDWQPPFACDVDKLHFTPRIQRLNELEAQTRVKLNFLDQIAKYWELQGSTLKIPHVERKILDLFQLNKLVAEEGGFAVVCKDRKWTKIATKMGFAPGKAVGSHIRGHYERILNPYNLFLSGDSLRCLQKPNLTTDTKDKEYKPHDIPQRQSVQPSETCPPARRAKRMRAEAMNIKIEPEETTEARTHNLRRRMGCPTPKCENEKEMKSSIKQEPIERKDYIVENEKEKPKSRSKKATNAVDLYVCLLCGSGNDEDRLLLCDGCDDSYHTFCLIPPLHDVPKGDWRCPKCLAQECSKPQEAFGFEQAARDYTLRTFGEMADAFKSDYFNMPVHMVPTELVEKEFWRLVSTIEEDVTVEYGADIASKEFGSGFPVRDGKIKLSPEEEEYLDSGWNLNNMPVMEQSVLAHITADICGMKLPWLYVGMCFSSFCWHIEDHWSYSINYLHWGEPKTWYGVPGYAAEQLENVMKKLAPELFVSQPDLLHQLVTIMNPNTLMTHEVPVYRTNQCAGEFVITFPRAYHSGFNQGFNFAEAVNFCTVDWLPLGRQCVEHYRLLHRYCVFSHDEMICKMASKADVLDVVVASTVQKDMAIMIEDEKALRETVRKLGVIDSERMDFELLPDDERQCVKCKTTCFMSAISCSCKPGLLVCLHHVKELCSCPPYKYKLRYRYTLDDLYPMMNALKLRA
Experimental: as §2

| Structure (SMILES) | IC50 (GASC1 (KDM4C, JMJD2C)) | IC50 (FBXL10 (KDM2B)) | IC50 (PLU1 (KDM5B) [1]) | IC50 (GASC1 (KDM4C)) | IC50 (PLU1 (KDM5B) [2]) |
| --- | --- | --- | --- | --- | --- |
| O=C(O)c1ccnc(CN2CCC2)c1 [#79, 2-(azetidin-1-ylmethyl)pyridine-4-carboxylic acid] | ≥ 1000 nM | ≥ 1000 nM | ≥ 1000 nM |  |  |
| O=C(O)c1ccnc(CN(CC(=O)N2CCCCC2)Cc2ccccc2)c1 [#83, 2-({benzyl[2-oxo-2-(piperidin-1-yl)ethyl]amino}methyl)pyridine-4-carboxylic acid] | ≥ 1000 nM | 100 to 1000 nM | ≥ 1000 nM |  |  |
| CCCCN(CC(=O)N1CCCCC1)Cc1cc(C(=O)O)ccn1 [#82, 2-({butyl[2-oxo-2-(piperidin-1-yl)ethyl]amino}methyl)pyridine-4-carboxylic acid] | ≥ 1000 nM | 100 to 1000 nM | ≥ 1000 nM |  |  |
| CCN(CC(=O)N1CCCCC1)Cc1cc(C(=O)O)ccn1 [#81, 2-({ethyl[2-oxo-2-(piperidin-1-yl)ethyl]amino}methyl)pyridine-4-carboxylic acid] | 100 to 1000 nM | 100 to 1000 nM | 100 to 1000 nM |  |  |
| C=CCN(CC=C)C(=O)CNCc1cc(C(=O)O)ccn1 [drawing 309, 2-[({[bis(prop-2-en-1-yl)carbamoyl]methyl}amino)methyl]pyridine-4-carboxylic acid] |  |  |  | 1000 to 50000 nM | 1000 to 50000 nM |
| CN(CCCc1nccn1C)C(=O)CNCc1cc(C(=O)O)ccn1 [drawing 312, 2-{[({methyl[3-(1-methyl-1H-imidazol-2-yl)propyl]carbamoyl}methyl)amino]methyl}pyridine-4-carboxylic acid] |  |  |  | 1000 to 50000 nM | 1000 to 50000 nM |
| COCCN1CCN(C(=O)CNCc2cc(C(=O)O)ccn2)CC1 [drawing 308, 2-[({2-[4-(2-methoxyethyl)piperazin-1-yl]-2-oxoethyl}amino)methyl] pyridine-4-carboxylic acid] |  |  |  | > 50000 nM | > 50000 nM |
| C#CCN(C)Cc1cc(C(=O)O)ccn1 [drawing 302, 2-{[methyl(prop-2-yn-1-yl)amino]methyl}pyridine-4-carboxylic acid] |  |  |  | > 50000 nM | > 50000 nM |
| CN(CCCNCc1cc(C(=O)O)ccn1)Cc1ccccc1F [drawing 322, 2-{[(3-{[(2-fluorophenyl)methyl](methyl)amino}propyl)amino]methyl}pyridine-4-carboxylic acid] |  |  |  | > 50000 nM | 1000 to 50000 nM |
